# Assay results: patent publication US20160311788A1, “Antifouling Compounds And Use Thereof” (National University of Singapore, priority 2008, published 2016)
# Where two headings read alike, the source gives them in different places.
# Tests used:
# [1] = tested on: marine bacteria strain S1; test: disc inhibition assay, strain S1; assay type: cell-based, Rhodovulum iodosum; conditions: strain 1, 50 μg of compound per disc
# Protocol: (§1) The disc inhibition assay was used. This assay is a conventional method routinely used for screening antibacterial compounds to determine degree of susceptibility to antibacterial compounds. The diameter of the zone of inhibition is proportional to the degree of susceptibility of the bacterial strain. The compounds were tested against 13 strains of marine bacteria isolated from Singapore coastal waters.
# (§2) 13 strains of marine bacteria were isolated from fouling communities located in the coastal waters around Singapore. These were characterized in earlier studies and reported in Teo et al. (U.S. patent application Ser. No. 11/265,833) and Choong et al (in prep). In addition, four reference bacterial strains were added tested: Escherichia coli (Strain K12, ATCC 15222), E. coli (strain DH5a), Pseudomonas aeruginosa (strain LMG 12228; ATCC 15692) and P. putida (strain KT2440; ATCC 47054). All the bacteria were also tested against five antibiotics: ampicillin (AMP), tetracycline (TETR), erythromycin (ERY), chloramphenicol (CHL) and streptomycin (STREP).
# (§3) Disks comprising the compounds to be tested were prepared as follows. The antibacterial assay, the pure compounds were made up to a concentration of 2 mgml^−1 in DMSO. 25 μl of the stock was pipetted onto each 6 mm sterile disc (Macherey-Nagel #484000) to obtain 50 μg of compound per disc. Equivalent volume of DMSO was used inoculated for the control.
# (§4) For all disk inhibition assays, bacterial cultures were grown in marine broth (Pronadisa #1217.00). Sterile swabs dipped into the cultures were used to inoculate Marine Agar plates with a bacterial lawn by smearing the culture over the surface. After inoculating the plates, discs with antibiotics, pharmaceuticals or control blanks were placed on each plate. Each concentration of antibiotic or pharmaceutical was tested with two replicates. After the disks were placed on the agar surface, plates were incubated overnight in the dark at 35° C. After incubation, plates were examined for zones of inhibition or clearing around control and treated disks. The diameter of any zone of clearing or inhibition was measured using Vernier calipers. There were two replicates per treatment, and the average was taken.
# [2] = tested on: marine bacteria strain S4; test: disc inhibition assay, strain S4; assay type: cell-based, Bacillus algicola; conditions: strain 4, 50 μg of compound per disc
# Protocol: as §1, §2, §3, §4
# [3] = tested on: marine bacteria strain S30; test: disc inhibition assay, strain S30; assay type: cell-based, Bacillus borophilicus; conditions: strain 30, 50 μg of compound per disc
# Protocol: as §1, §2, §3, §4
# [4] = tested on: marine bacteria strain S27; test: disc inhibition assay, strain S27; assay type: cell-based, Tenacibaculum lutimaris; conditions: strain 27, 50 μg of compound per disc
# Protocol: as §1, §2, §3, §4
# [5] = tested on: marine bacteria strain S10; test: disc inhibition assay, strain S10; assay type: cell-based, Halobacillus trueperi; conditions: strain 10, 50 μg of compound per disc
# Protocol: as §1, §2, §3, §4
# [6] = tested on: marine bacteria strain S29; test: disc inhibition assay, strain S29; assay type: cell-based, Bacillus hwajinpoensis; conditions: strain 29, 50 μg of compound per disc
# Protocol: as §1, §2, §3, §4
# [7] = tested on: marine bacteria strain S9; test: disc inhibition assay, strain S9; assay type: cell-based, Bacillus algicola; conditions: strain 9, 50 μg of compound per disc; for zone of inhibition at 50 µg/disc: Guptibacillus algicola, S9, 24 h, read-out: zone of inhibition
# Protocol: as §1, §2, §3, §4
# [8] = tested on: marine bacteria strain S28; test: disc inhibition assay, strain S28; assay type: cell-based, Arthrobacter protophormial; conditions: strain 28, 50 μg of compound per disc
# Protocol: as §1, §2, §3, §4
# [9] = tested on: marine bacteria strain S18; test: disc inhibition assay, strain S18; assay type: cell-based, Microbacterium esteraromaticum; conditions: strain 18, 50 μg of compound per disc
# Protocol: as §1, §2
# (§5) Disks comprising the compounds to be tested were prepared as follows. The antibacterial assay, the pure compounds were made up to a concentration of 2 mgml^−1 in DMSO. […] Equivalent volume of DMSO was used inoculated for the control.
# as §4
# [10] = tested on: cyprids of Balanus amphitrite; test: barnacle settlement assay; assay type: in vivo; conditions: for IC50: Amphibalanus amphitrite, 24 h, Table 3(a), concentration that caused 50% settlement inhibition, 24 hours, cyprids, read-out: ED50 (the source's name); for percentage of cyprids that settled: after 24 hours incubation, averaged over two trials
# Protocol: (§6) Pure compounds were suspended in DMSO and sonicated to obtain a stock solution of 50 mg ml^−1 in DMSO. This stock solution is stored at −20° C. in 4 ml amber screw cap vials. For the bioassays, a small volume of stock solution was added to 1 μm filtered seawater in a glass scintillation vial. This suspension was then sonicated around 10 minutes. Serial dilutions were generated to the required range of concentrations. Serial dilution of the equivalent amounts of DMSO in seawater was used as the control.
# (§7) The barnacle bioassay method used follows from the method first introduced by Rittschof et al. (1992), and subsequently by other authors (Willemsen et al., 1998). This method is now standard practice for many antifouling screening of novel compounds.
# Barnacle settlement assays were based on methodology from Rittschof et al. (1992). Barnacle larvae from field-collected adults were reared on an algal mixture of 1:1 v/v of Tetraselmis suecica and Chaetoceros muelleri at 25° C., at approximately 5×10^5 cells per ml density. On this regime, larvae metamorphose to cyprids in 5 days. These cyprids were aged at 4° C. for 2-3 days, and 45-70% settlement after 24 hours (Willemsen et al., 1998).
# Settlement tests were conducted in 7 ml neutral glass vials (Samco® T1 03N1) 34 mm by 23 mm diameter, with 20-40 cyprids per well. Test solutions were made up to twice the required final concentration. 0.5 ml of test solution was added into each well, and cyprids were transferred into each well in 0.5 ml of seawater. Assays were done in triplicate. As before, there were two sets of controls, a blank control consisting 3 tubes of seawater only, and DMSO control consisting of the equivalent dilution series with DMSO without compound. After 24 hours, larvae that had attached and metamorphosed were enumerated and the result expressed as percentage settlement. Larvae not attached were scored as not settled. The assays were repeated and the concentration that caused 50% settlement inhibition (ED50) was determined by pro bit analysis using a basic computer program (Lieberman, 1983), or by estimation from graphed data.
# [11] = tested on: marine bacteria strain S14; test: disc inhibition assay, strain S14; assay type: cell-based, Vibrio probioticus; conditions: strain 14, 50 μg of compound per disc
# Protocol: as §1, §2, §5, §4
# [12] = tested on: marine bacteria strain S16; test: disc inhibition assay, strain S16; assay type: cell-based, Pseudoalteromonas piscicida; conditions: for zone of inhibition at 50 µg/disc: Pseudoalteromonas piscicida, S16, 24 h
# Protocol: as §1, §2, §3, §4
# [13] = tested on: marine bacteria strain S17; test: disc inhibition assay, strain S17; assay type: cell-based, Gordonia terrae; conditions: strain 17, 50 μg of compound per disc
# Protocol: as §1, §2, §3, §4
# [14] = tested on: Stage II nauplii of Balanus amphitrite; test: barnacle toxicity assay; assay type: in vivo
# Protocol: as §6, §7
# Toxicity assays were modified from Rittschof et al. (1992). Stage II naupliar larvae used in tests were obtained from Balanus amphitrite adults collected from inter-tidal rock walls at Kranji mangrove, Singapore. Larvae were collected from a container of adults by attraction to a point source of light and transferred to 500 ml of fresh seawater. Next, larvae were re-concentrated with a fiber optic light and added to assays.
# Duplicate assays were conducted in 2 ml glass vials (La Pha Pack® PN 11-14-0544) in 1 ml of filtered seawater for 22 to 24 hours. The assays were repeated for confirmation. There were two sets of controls, a blank control consisting of 3 tubes of seawater only, and DMSO control consisting of the equivalent dilution series with DMSO without compound). For the compounds, there were 3 tubes of each for each test concentration. The assay was initiated by addition of barnacle naupliar in 50 μl of seawater. After 22 to 24 hours of incubation at 25-27° C. solutions containing test animals were transferred to a Bogorov tray and scored as living or dead. Moribund larvae were scored as dead. Results were confirmed by repeating the assay. Data were combined and the concentration that caused 50% mortality (LD50) was calculated by probit analysis using a basic computer program (Libermann, 1983). If data were not appropriate for probit analysis, the LD50 was estimated from graphed data.
# [15] = tested on: marine bacteria strain S3; test: disc inhibition assay, strain S3; assay type: cell-based, Erythrobacter aquimaris; conditions: strain 3, 50 μg of compound per disc; for zone of inhibition at 50 µg/disc: Qipengyuania aquimaris, S3, 24 h, read-out: zone of inhibition
# Protocol: as §1, §2, §3, §4
# [16] = strain 16, 50 μg of compound per disc
# [17] = Table 3(a), concentration that caused 50% mortality, 22 to 24 hours, Stage II nauplii
# [18] = strain 16, 50 μg of compound per disc, read-out: zone of inhibition
# [19] = Table 3(b), highest concentration tested 25 μg/ml
SMILES,zone of inhibition [1],zone of inhibition [2],zone of inhibition [3],zone of inhibition [4],zone of inhibition [5],zone of inhibition [6],zone of inhibition [7],zone of inhibition [8],zone of inhibition [9],IC50 [10] [µg/mL],zone of inhibition [11],zone of inhibition [13],"LD50 [14, 17] [µg/mL]",zone of inhibition [15],other results
O=C(C(c1ccccc1)c1ccccc1)N1CCC(O)(c2ccccc2)CC1 [Compound 4.5],−,−,−,−,−,−,−,−,−,6.48,−,−,> 50,,"zone of inhibition [12, 16]: −; zone of inhibition at 50 µg/disc [15]: 5 to 10 mm"
CCCCC(CCCC)C(=O)N(C)C [Compound 12.3],−,−,−,−,−,,−,−,−,2.76,−,−,> 50,−,"zone of inhibition at 50 µg/disc ([6]; Guptibacillus hwajinpoensis, S29, 24 h, read-out: zone of inhibition): 2 to 5 mm; zone of inhibition [12, 16]: −"
O=C(Cc1ccccc1)N1CCC(O)(c2ccccc2)CC1 [Compound 10.4],−,−,−,,−,−,,−,−,15,−,−,> 50,,"zone of inhibition at 50 µg/disc ([4]; Tenacibaculum lutimaris, S27, 24 h, read-out: zone of inhibition): 2 to 5 mm; zone of inhibition at 50 µg/disc [7]: 2 to 5 mm; zone of inhibition at 50 µg/disc [12, 18]: 2 to 5 mm; zone of inhibition at 50 µg/disc [15]: 2 to 5 mm"
CN1CCC(O)(c2ccccc2)CC1 [Compound 4.4],−,−,−,−,−,−,−,−,−,5.98,−,−,12.35,−,zone of inhibition at 50 µg/disc [12]: 2 to 5 mm
OC1(c2ccc(Cl)cc2)CCNCC1 [Compound 3.4],−,,−,−,−,−,,−,−,43.9,−,−,8.41,−,"zone of inhibition at 50 µg/disc ([2]; Guptibacillus algicola, S4, 24 h, read-out: zone of inhibition): 2 to 5 mm; zone of inhibition at 50 µg/disc [7]: 2 to 5 mm; zone of inhibition at 50 µg/disc [12, 18]: 2 to 5 mm"
CCCCCCCCCCC(CCCCCCCC)C(=O)N1CCCCC1 (stereo not shown) [Compound 12.10],,,,,,,,,,,,,,,"percentage of cyprids that settled ([10]; 0.2 ug/ml): 12.5%; percentage of cyprids that settled ([10]; 1 ug/ml): 13.00%; percentage of cyprids that settled ([10]; 5 ug/ml): 11.40%; percentage of cyprids that settled ([10]; 25 ug/ml): 17.88%; LD50 [14, 19]: >25 µg/mL"
CCCCCCCCCCC(CCCC)C(=O)N1CCCCC1 (stereo not shown) [Compound 12.9],,,,,,,,,,,,,,,"percentage of cyprids that settled ([10]; 0.2 ug/ml): 28.14%; percentage of cyprids that settled ([10]; 1 ug/ml): 10.56%; percentage of cyprids that settled ([10]; 5 ug/ml): 1.94%; percentage of cyprids that settled ([10]; 25 ug/ml): 1.32%; LD50 [14, 19]: >25 µg/mL"
"CN1CCN(C(=O)C(c2ccccc2)c2ccccc2)CC1 [Compound 4.2, 1-(4-Methylpiperazin-1-yl)-2,2-diphenylethanone]",,,,,,,,,,> 50,,,14.32,,anti-settlement activity in words [10]: eliminated anti-settlement behaviour
